Test results as given in ChEMBL document CHEMBL4359906, “Design and synthesis of new N-terminal fatty acid modified-antimicrobial peptide analogues with potent in vitro biological activity” (Eur J Med Chem, 2019).
Converted amounts (≈) assume the structure as drawn. The source made the active and inactive calls. The calls are words filed in the database; no cut-off is given here.

What was measured:
Escherichia coli [1] = assay: Ratio of antibacterial activity against Escherichia coli ATCC 25922 in presence of KCl to antibacterial activity against Escherichia coli ATCC 25922; assay type: functional
Escherichia coli [2] = assay: Ratio of antibacterial activity against Escherichia coli ATCC 25922 in presence of FeCl3 to antibacterial activity against Escherichia coli ATCC 25922; assay type: functional
Escherichia coli [3] = assay: Antibacterial activity against Escherichia coli ATCC 25922 after 18 hrs in presence of FeCl3 by CLSI based broth microdilution method (reference value: 16 microM); assay type: functional; details: ATCC 25922, 18 h
Staphylococcus aureus [4] = assay: Antibacterial activity against Staphylococcus aureus ATCC 25923 after 18 hrs by CLSI based broth microdilution method; assay type: functional; details: ATCC 25923, 18 h
DNA [5] = assay: Binding affinity to Escherichia coli ATCC 25922 genomic DNA at 0.5 x MIC after 30 mins by agarose gel electrophoresis; assay type: nucleic-acid assay
Escherichia coli [6] = assay: Antibacterial activity against Escherichia coli ATCC 25922 after 18 hrs by CLSI based broth microdilution method; assay type: functional; details: ATCC 25922, 18 h
Escherichia coli [7] = assay: Antimicrobial activity against Escherichia coli ATCC 25922 preincubated for 1 hr in presence of 10% mouse serum and measured after 18 hrs by CLSI-based broth microdilution assay (reference value: 16 microM); assay type: functional
Escherichia coli [8] = assay: Disruption of membrane integrity in Escherichia coli ATCC 25922 assessed as membrane damage by measuring PI fluorescence incubated for 1 hr by PI dye based flow cytometric analysis; assay type: functional, organism-based
Staphylococcus aureus [9] = assay: Antibiofilm activity against Staphylococcus aureus ATCC 25923 at 1 to 2 times of MIC after 24 hrs by crystal violet staining based assay; assay type: functional, organism-based
Escherichia coli [10] = assay: Antibacterial activity against Escherichia coli ATCC 25922 after 18 hrs in presence of NaCl by CLSI based broth microdilution method (reference value: 16 microM); assay type: functional; details: ATCC 25922, 18 h
Escherichia coli [11] = assay: Antibacterial activity against Escherichia coli ATCC 25922 after 18 hrs in presence of KCl by CLSI based broth microdilution method (reference value: 16 microM); assay type: functional; details: ATCC 25922, 18 h
[12] = Cytotoxicity against mouse RAW264.7 cells assessed as cell proliferation at 64 uM after 1 hr by MTT assay relative to control; assay type: cell-based; details: read-out: Activity
Staphylococcus aureus [13] = assay: Antibacterial activity against Staphylococcus aureus ATCC 25923 after 18 hrs in presence of FeCl3 by CLSI based broth microdilution method (reference value: 128 microM); assay type: functional; details: ATCC 25923, 18 h
Escherichia coli [14] = assay: Antimicrobial activity against Escherichia coli ATCC 25922 preincubated for 6 hrs in presence of 10% mouse serum and measured after 18 hrs by CLSI-based broth microdilution assay (reference value: 16 microM); assay type: functional
Escherichia coli [15] = assay: Antibacterial activity against Escherichia coli ATCC 25922 after 18 hrs in presence of MgCl2 by CLSI based broth microdilution method (reference value: 16 microM); assay type: functional; details: ATCC 25922, 18 h
Escherichia coli [16] = assay: Antibiofilm activity against Escherichia coli ATCC 25922 assessed as reduction in biofilm inhibition at MIC after 24 hrs by crystal violet staining based assay relative to control; assay type: functional
Staphylococcus aureus [17] = assay: Antibacterial activity against Staphylococcus aureus ATCC 25923 after 18 hrs in presence of KCl by CLSI based broth microdilution method (reference value: 4 microM); assay type: functional; details: ATCC 25923, 18 h
Escherichia coli [18] = assay: Antibiofilm activity against Escherichia coli ATCC 25922 assessed as reduction in biofilm inhibition at 0.5 to 1 times of MIC after 24 hrs by crystal violet staining based assay; assay type: functional, organism-based
Staphylococcus aureus [19] = assay: Antibiofilm activity against Staphylococcus aureus ATCC 25923 at 2 times of MIC after 24 hrs by crystal violet staining based assay; assay type: functional, organism-based
[20] = Hemolytic activity in human RBC at 256 uM measured after 1 hr by microplate reader analysis relative to control; assay type: ADME, cell-based, Erythrocyte; details: human red blood cells (erythrocytes), read-out: Activity
Escherichia coli [21] = assay: Antimicrobial activity against Escherichia coli ATCC 25922 preincubated for 1 hr in presence of 10% mouse serum and measured after 18 hrs by CLSI-based broth microdilution assay (reference value: 8 microM); assay type: functional
Escherichia coli [22] = assay: Antibacterial activity against Escherichia coli ATCC 25922 after 18 hrs in presence of NaCl by CLSI based broth microdilution method (reference value: 8 microM); assay type: functional; details: ATCC 25922, 18 h
Escherichia coli [23] = assay: Antibacterial activity against Escherichia coli ATCC 25922 after 18 hrs in presence of KCl by CLSI based broth microdilution method (reference value: 8 microM); assay type: functional; details: ATCC 25922, 18 h
Escherichia coli [24] = assay: Antimicrobial activity against Escherichia coli ATCC 25922 preincubated for 6 hrs in presence of 10% mouse serum and measured after 18 hrs by CLSI-based broth microdilution assay (reference value: 8 microM); assay type: functional
Escherichia coli [25] = assay: Antibacterial activity against Escherichia coli ATCC 25922 after 18 hrs in presence of FeCl3 by CLSI based broth microdilution method (reference value: 8 microM); assay type: functional; details: ATCC 25922, 18 h
Escherichia coli [26] = assay: Antibacterial activity against Escherichia coli ATCC 25922 after 18 hrs in presence of MgCl2 by CLSI based broth microdilution method (reference value: 8 microM); assay type: functional; details: ATCC 25922, 18 h
[27] = Cytotoxicity against mouse RAW264.7 cells assessed as cell proliferation at 4 uM after 1 hr by MTT assay relative to control; assay type: cell-based; details: read-out: Activity
Staphylococcus aureus [28] = assay: Antibacterial activity against Staphylococcus aureus ATCC 25923 after 18 hrs in presence of KCl by CLSI based broth microdilution method (reference value: 8 microM); assay type: functional; details: ATCC 25923, 18 h
Staphylococcus aureus [29] = assay: Antibacterial activity against Staphylococcus aureus ATCC 25923 after 18 hrs in presence of NaCl by CLSI based broth microdilution method (reference value: 8 microM); assay type: functional; details: ATCC 25923, 18 h
DNA [30] = assay: Binding affinity to Escherichia coli ATCC 25922 genomic DNA at 1 x MIC after 30 mins by agarose gel electrophoresis; assay type: nucleic-acid assay
Staphylococcus aureus [31] = assay: Antibacterial activity against Staphylococcus aureus ATCC 25923 after 18 hrs in presence of FeCl3 by CLSI based broth microdilution method (reference value: 8 microM); assay type: functional; details: ATCC 25923, 18 h
Staphylococcus aureus [32] = assay: Antibacterial activity against Staphylococcus aureus ATCC 25923 after 18 hrs in presence of MgCl2 by CLSI based broth microdilution method (reference value: 8 microM); assay type: functional; details: ATCC 25923, 18 h

With `CCCC(=O)NC(Cc1cn(CCCC[C@H](NC(C)=O)C(=O)NCC(=O)N[C@@H](CC(C)C)C(=O)N[C@@H](CC(C)C)C(=O)N[C@H](CCCCN)C(=O)N[C@@H](CCCNC(=N)N)C(=O)N[C@H](C(=O)N[C@H](CCCCN)C(=O)N[C@H](C(=O)N[C@@H](CC(C)C)C(=O)N[C@@H](CC(C)C)C(N)=O)[C@@H](C)O)[C@@H](C)CC)nn1)C(=O)NCC(=O)N[C@@H](CC(C)C)C(=O)N[C@@H](CC(C)C)C(=O)N[C@H](CCCCN)C(=O)N[C@@H](CCCNC(=N)N)C(=O)N[C@H](C(=O)N[C@H](CCCCN)C(=O)N[C@H](C(=O)N[C@@H](CC(C)C)C(=O)N[C@@H](CC(C)C)C(N)=O)[C@@H](C)O)[C@@H](C)CC` (stereo partly drawn) the Ratio (Escherichia coli [1]) was 2 - 4, the Ratio (Escherichia coli [2]) was 2 - 4 and the MIC (Escherichia coli [3]) was 16 µM. For the same molecule, the MIC (Staphylococcus aureus [4]) was 128 µM (≈ 342 µg/mL), the Activity (DNA [5]) was “inactive” and the MIC (Escherichia coli [6]) was 16 µM (≈ 42.7 µg/mL). The MIC (Escherichia coli [7]) was 16 µM, the Activity (Escherichia coli [8]) was “Dose-dependent effect” and the inhibition (Staphylococcus aureus [9]) was “Active”. For the same molecule, the MIC (Escherichia coli [10]) was 128 µM, the MIC (Escherichia coli [11]) was 16 µM and the viability at 1 h, 64 µM [12] was greater than 80%. The MIC (Staphylococcus aureus [13]) was 128 µM, the MIC (Escherichia coli [14]) was 16 µM and the MIC (Escherichia coli [15]) was 32 µM. The “inhibition (INH)” value (Escherichia coli [16]) was greater than 50%.

In the case of `CCCCCCCCCCCC(=O)NCC(=O)N[C@@H](CC(C)C)C(=O)N[C@@H](CC(C)C)C(=O)N[C@H](CCCCN)C(=O)N[C@@H](CCCNC(=N)N)C(=O)N[C@H](C(=O)N[C@H](CCCCN)C(=O)N[C@H](C(=O)N[C@@H](CC(C)C)C(=O)N[C@@H](CC(C)C)C(N)=O)[C@@H](C)O)[C@@H](C)CC`, the Ratio (Escherichia coli [1]) is reported as 2 - 4, the MIC (Staphylococcus aureus [17]) is reported as 4 µM and the Ratio (Escherichia coli [2]) is reported as 2 - 4. For the same molecule, the MIC (Escherichia coli [3]) was 4 µM, the MIC (Staphylococcus aureus [4]) was 4 µM (≈ 5.34 µg/mL) and the inhibition (Escherichia coli [18]) was “Active”. The MIC (Escherichia coli [6]) was 16 µM (≈ 21.4 µg/mL), the inhibition (Staphylococcus aureus [19]) was “Active” and the MIC (Escherichia coli [7]) was 16 µM. For the same molecule, the Activity (Escherichia coli [8]) was “Dose-dependent effect”, the MIC (Escherichia coli [10]) was 16 µM and the MIC (Escherichia coli [11]) was 4 µM. It also gave an MIC (Escherichia coli [14]) of 32 µM and an MIC (Escherichia coli [15]) of 16 µM.

In the case of `CCCCCC(=O)NC(Cc1cn(CCCC[C@H](NC(C)=O)C(=O)NCC(=O)N[C@@H](CC(C)C)C(=O)N[C@@H](CC(C)C)C(=O)N[C@H](CCCCN)C(=O)N[C@@H](CCCNC(=N)N)C(=O)N[C@H](C(=O)N[C@H](CCCCN)C(=O)N[C@H](C(=O)N[C@@H](CC(C)C)C(=O)N[C@@H](CC(C)C)C(N)=O)[C@@H](C)O)[C@@H](C)CC)nn1)C(=O)NCC(=O)N[C@@H](CC(C)C)C(=O)N[C@@H](CC(C)C)C(=O)N[C@H](CCCCN)C(=O)N[C@@H](CCCNC(=N)N)C(=O)N[C@H](C(=O)N[C@H](CCCCN)C(=O)N[C@H](C(=O)N[C@@H](CC(C)C)C(=O)N[C@@H](CC(C)C)C(N)=O)[C@@H](C)O)[C@@H](C)CC` (stereo partly drawn), the hemolysis at 1 h, 256 µM [20] is reported as less than 5%, the MIC (Escherichia coli [21]) is reported as 8 µM and the Ratio (Escherichia coli [1]) is reported as 2 - 4. The MIC (Escherichia coli [22]) was 32 µM, the MIC (Escherichia coli [23]) was 16 µM and the MIC (Escherichia coli [24]) was 16 µM. For the same molecule, the Ratio (Escherichia coli [2]) was 2 - 4, the MIC (Staphylococcus aureus [4]) was 64 µM (≈ 173 µg/mL) and the MIC (Escherichia coli [25]) was 4 µM. The MIC (Escherichia coli [6]) was 8 µM (≈ 21.6 µg/mL), the Activity (Escherichia coli [8]) was “Dose-dependent effect” and the inhibition (Staphylococcus aureus [9]) was “Active”. The MIC (Escherichia coli [26]) was 16 µM and the “inhibition (INH)” value (Escherichia coli [16]) was greater than 50%.

In the case of `CCCCCCCCCCCC(=O)NC(Cc1cn(CCCC[C@H](NC(C)=O)C(=O)NCC(=O)N[C@@H](CC(C)C)C(=O)N[C@@H](CC(C)C)C(=O)N[C@H](CCCCN)C(=O)N[C@@H](CCCNC(=N)N)C(=O)N[C@H](C(=O)N[C@H](CCCCN)C(=O)N[C@H](C(=O)N[C@@H](CC(C)C)C(=O)N[C@@H](CC(C)C)C(N)=O)[C@@H](C)O)[C@@H](C)CC)nn1)C(=O)NCC(=O)N[C@@H](CC(C)C)C(=O)N[C@@H](CC(C)C)C(=O)N[C@H](CCCCN)C(=O)N[C@@H](CCCNC(=N)N)C(=O)N[C@H](C(=O)N[C@H](CCCCN)C(=O)N[C@H](C(=O)N[C@@H](CC(C)C)C(=O)N[C@@H](CC(C)C)C(N)=O)[C@@H](C)O)[C@@H](C)CC` (stereo partly drawn), the viability at 1 h, 4 µM [27] is reported as less than 80%, the MIC (Escherichia coli [21]) is reported as 16 µM and the MIC (Staphylococcus aureus [28]) is reported as 16 µM. The Ratio (Escherichia coli [1]) was 2 - 4, the MIC (Escherichia coli [22]) was 16 µM and the MIC (Escherichia coli [23]) was 16 µM. The MIC (Escherichia coli [24]) was 32 µM, the Ratio (Escherichia coli [2]) was 2 - 4 and the MIC (Staphylococcus aureus [4]) was 8 µM (≈ 22.2 µg/mL). The MIC (Staphylococcus aureus [29]) was 8 µM, the Activity (DNA [30]) was “Dose-dependent effect” and the MIC (Staphylococcus aureus [31]) was 16 µM. The MIC (Escherichia coli [25]) was 4 µM, the MIC (Staphylococcus aureus [32]) was 8 µM and the MIC (Escherichia coli [6]) was 8 µM (≈ 22.2 µg/mL). The Activity (Escherichia coli [8]) was “Dose-dependent effect”, the inhibition (Staphylococcus aureus [9]) was “Active” and the MIC (Escherichia coli [26]) was 32 µM. For the same molecule, the “inhibition (INH)” value (Escherichia coli [16]) was greater than 50%.
